# Experimental data as given in the supplement of paper PMC10307832.
# Compound: COCC[n+]1c2c(n(Cc3cnccn3)c1C)C(=O)c1ccccc1C2=O [YM155] + CC(=O)c1c(C)c2cnc(Nc3ccc(N4CCNCC4)cn3)nc2n(C2CCCC2)c1=O [Palbociclib] (partner 0.5 µM)
# Assay: relative viability (nuclei count vs DMSO), 5 days (fraction); higher = more cells survive
# Settings: first compound 0.002 µM
# Outline: (§1)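 The day after seeding in 1536-well plates, lung cancer cell lines were treated by pin tool with a single drug, or with a fixed anchor-drug dose together with five library-drug doses (not always all listed) in √10 steps. After 5 days, a combined fix-and-stain solution (final 0.05% Triton X-100, 1% formaldehyde, 1 ug/ml Hoechst) was added. Nuclei counted on 4× images gave relative viability as treated counts over vehicle counts, reported as the median of duplicate plates.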
row,Cell Line,relative viability
1,EKVX,0.386
2,EPLC-272H,0.314
3,NCI-H520,0.175
4,NCI-H650,0.314
5,RERF-LC-KJ,1.09
6,HCC-827,0.511
7,NCI-H2087,0.207
8,SK-MES-1,0.312
9,NCI-H1651,0.548
10,UMC-11,0.327
11,NCI-H1355,0.4
12,H3255,0.324
13,NCI-H1792,0.628
14,NCI-H647,0.348
15,LXF-289,0.584
16,LU99A,0.416
17,NCI-H2023,0.384
18,NCI-H2228,0.573
19,NCI-H1437,0.245
20,NCI-H1395,0.565
21,NCI-H2009,0.215
22,HCC-366,0.37
23,NCI-H1915,0.494

row,Cell Line,relative viability
1,NCI-H2347,0.422
2,LCLC-103H,0.472
3,NCI-H1734,0.362
4,HCC-78,0.395
5,COR-L 105,0.371
6,HCC-15,0.702
7,HARA,0.235
8,NCI-H1975,0.463
9,NCI-H1944,0.337
10,NCI-H2126,0.354
11,EMC-BAC-2,0.49
12,SK-LU-1,0.405
13,NCI-H2170,0.418
14,NCI-H661,0.405
15,NCI-H358,0.129
16,CAL-12T,0.45
17,LK-2,0.851
18,HOP-62,0.484
19,PC-14,0.477
20,NCI-H1993,0.557
21,NCI-H2405,0.515
22,NCI-H3122,0.184
23,A-427,0.532

row,Cell Line,relative viability
1,NCI-H2342,0.515
2,LOU-NH91,0.527
3,NCI-H1666,0.616
4,NCI-H838,0.191
5,NCI-H322M,0.433
6,NCI-H1793,0.292
7,NCI-H441,0.224
8,NCI-H727,0.639
9,SW 1573,0.415
10,201T,0.367
11,HCC-44,0.975
12,NCI-H1755,0.439
13,NCI-H1650,0.229
14,ChaGo-K-1,0.951
15,COR-L23,0.279
16,NCI-H2085,0.436
17,NCI-H460,0.166
18,BEN,0.482
19,PC-3 [JPC-3],0.526
20,LC-2-ad,0.455
21,NCI-H522,1.01

# Same assay, conditions: first compound 0.006325 µM
row,Cell Line,relative viability
1,EKVX,0.348
2,EPLC-272H,0.27
3,NCI-H520,0.205
4,NCI-H650,0.292
5,RERF-LC-KJ,1.1
6,HCC-827,0.481
7,NCI-H2087,0.247
8,SK-MES-1,0.357
9,NCI-H1651,0.519
10,UMC-11,0.356
11,NCI-H1355,0.39
12,H3255,0.305
13,NCI-H1792,0.685
14,NCI-H647,0.424
15,LCLC-97TM1,0.232
16,LXF-289,0.628
17,LU99A,0.403
18,NCI-H2023,0.423
19,NCI-H2228,0.69
20,NCI-H1437,0.329
21,NCI-H1395,0.613
22,NCI-H2009,0.189
23,HCC-366,0.412
24,NCI-H1915,0.533

row,Cell Line,relative viability
1,NCI-H2347,0.399
2,LCLC-103H,0.471
3,ABC-1,0.662
4,NCI-H1734,0.313
5,HCC-78,0.43
6,COR-L 105,0.388
7,HCC-15,0.854
8,HARA,0.262
9,NCI-H1975,0.531
10,NCI-H1944,0.296
11,NCI-H2126,0.369
12,EMC-BAC-2,0.514
13,SK-LU-1,0.495
14,NCI-H2170,0.473
15,SW 900,0.586
16,NCI-H661,0.401
17,NCI-H358,0.129
18,CAL-12T,0.582
19,LK-2,0.655
20,HOP-62,0.441
21,PC-14,0.447
22,NCI-H1993,0.657
23,NCI-H2405,0.508
24,NCI-H3122,0.178

row,Cell Line,relative viability
1,A-427,0.502
2,NCI-H2342,0.496
3,LOU-NH91,0.509
4,NCI-H1666,0.701
5,NCI-H23,0.567
6,NCI-H838,0.237
7,NCI-H322M,0.471
8,NCI-H1793,0.324
9,NCI-H441,0.202
10,NCI-H727,0.694
11,SW 1573,0.314
12,201T,0.339
13,HCC-44,1.01
14,NCI-H1755,0.478
15,NCI-H1650,0.347
16,ChaGo-K-1,0.909
17,COR-L23,0.272
18,NCI-H2085,0.441
19,NCI-H460,0.169
20,BEN,0.412
21,PC-3 [JPC-3],0.565
22,LC-2-ad,0.485
23,NCI-H522,1.01

# Same assay, conditions: first compound 0.02 µM
row,Cell Line,relative viability
1,EKVX,0.42
2,EPLC-272H,0.35
3,NCI-H520,0.238
4,NCI-H650,0.383
5,RERF-LC-KJ,1.02
6,HCC-827,0.505
7,NCI-H2087,0.256
8,SK-MES-1,0.225
9,NCI-H1651,0.494
10,UMC-11,0.336
11,NCI-H1355,0.4
12,H3255,0.351
13,NCI-H1792,0.638
14,NCI-H647,0.423
15,LCLC-97TM1,0.241
16,LXF-289,0.612
17,LU99A,0.388
18,NCI-H2023,0.21
19,NCI-H2228,0.752
20,NCI-H1437,0.309
21,NCI-H1395,0.598
22,NCI-H2009,0.318
23,HCC-366,0.439
24,NCI-H1915,0.539

row,Cell Line,relative viability
1,NCI-H2347,0.389
2,LCLC-103H,0.491
3,ABC-1,0.269
4,NCI-H1734,0.374
5,HCC-78,0.483
6,COR-L 105,0.424
7,HCC-15,0.701
8,HARA,0.328
9,NCI-H1975,0.643
10,NCI-H1944,0.328
11,NCI-H2126,0.369
12,EMC-BAC-2,0.536
13,SK-LU-1,0.404
14,NCI-H2170,0.389
15,SW 900,0.579
16,NCI-H661,0.418
17,NCI-H358,0.134
18,CAL-12T,0.489
19,LK-2,0.632
20,HOP-62,0.42
21,PC-14,0.476
22,NCI-H1993,0.554
23,NCI-H2405,0.424
24,NCI-H3122,0.218

row,Cell Line,relative viability
1,A-427,0.567
2,NCI-H2342,0.475
3,LOU-NH91,0.628
4,NCI-H1666,0.651
5,NCI-H23,0.523
6,NCI-H838,0.226
7,NCI-H322M,0.503
8,NCI-H1793,0.323
9,NCI-H441,0.267
10,NCI-H727,0.615
11,SW 1573,0.126
12,201T,0.361
13,HCC-44,0.928
14,NCI-H1755,0.456
15,NCI-H1650,0.286
16,ChaGo-K-1,0.881
17,COR-L23,0.217
18,NCI-H2085,0.469
19,NCI-H460,0.226
20,BEN,0.477
21,PC-3 [JPC-3],0.571
22,LC-2-ad,0.511
23,NCI-H522,1.18

# Same assay, conditions: first compound 0.06325 µM
row,Cell Line,relative viability
1,EKVX,0.215
2,EPLC-272H,0.327
3,NCI-H520,0.304
4,NCI-H650,0.31
5,RERF-LC-KJ,0.985
6,HCC-827,0.552
7,NCI-H2087,0.208
8,SK-MES-1,0.191
9,NCI-H1651,0.53
10,UMC-11,0.33
11,NCI-H1355,0.394
12,H3255,0.319
13,NCI-H1792,0.665
14,NCI-H647,0.238
15,LCLC-97TM1,0.19
16,LXF-289,0.605
17,LU99A,0.409
18,NCI-H2023,0.105
19,NCI-H2228,0.714
20,NCI-H1437,0.298
21,NCI-H1395,0.627
22,NCI-H2009,0.166
23,HCC-366,0.27
24,NCI-H1915,0.552

row,Cell Line,relative viability
1,NCI-H2347,0.37
2,LCLC-103H,0.499
3,ABC-1,0.283
4,NCI-H1734,0.345
5,HCC-78,0.504
6,COR-L 105,0.401
7,HCC-15,0.749
8,HARA,0.211
9,NCI-H1975,0.259
10,NCI-H1944,0.325
11,NCI-H2126,0.369
12,EMC-BAC-2,0.384
13,SK-LU-1,0.412
14,NCI-H2170,0.376
15,SW 900,0.608
16,NCI-H661,0.327
17,NCI-H358,0.157
18,CAL-12T,0.433
19,LK-2,0.78
20,HOP-62,0.437
21,PC-14,0.278
22,NCI-H1993,0.43
23,NCI-H2405,0.269
24,NCI-H3122,0.171

row,Cell Line,relative viability
1,A-427,0.293
2,NCI-H2342,0.54
3,LOU-NH91,0.544
4,NCI-H1666,0.611
5,NCI-H23,0.388
6,NCI-H838,0.198
7,NCI-H322M,0.473
8,NCI-H1793,0.304
9,NCI-H441,0.213
10,NCI-H727,0.705
11,SW 1573,0.0609
12,201T,0.369
13,HCC-44,1
14,NCI-H1755,0.453
15,NCI-H1650,0.216
16,ChaGo-K-1,0.918
17,COR-L23,0.152
18,NCI-H2085,0.375
19,NCI-H460,0.212
20,BEN,0.545
21,PC-3 [JPC-3],0.52
22,LC-2-ad,0.411
23,NCI-H522,1.06

# Compound: COCC[n+]1c2c(n(Cc3cnccn3)c1C)C(=O)c1ccccc1C2=O [YM155] + O=C(c1cc(Cc2n[nH]c(=O)c3ccccc23)ccc1F)N1CCN(C(=O)C2CC2)CC1 [Olaparib] (partner 8 µM)
# Assay: as above
# Settings: first compound 0.002 µM
# Outline: as §1
row,Cell Line,relative viability
1,EKVX,0.912
2,EPLC-272H,0.825
3,NCI-H520,0.362
4,NCI-H650,0.429
5,RERF-LC-KJ,0.825
6,HCC-827,0.708
7,NCI-H2087,0.547
8,SK-MES-1,0.707
9,NCI-H1299,1
10,NCI-H1651,0.189
11,UMC-11,0.389
12,NCI-H1355,0.751
13,H3255,0.577
